Measured values taken from ChEMBL document CHEMBL4393697, “Lipophilic efficient phenylthiazoles with potent undecaprenyl pyrophosphatase inhibitory activity” (Eur J Med Chem, 2019).
Converted amounts (≈) assume the structure as drawn. The source made the active and inactive calls. The calls are words filed in the database; no cut-off is given here.

Assays:
Staphylococcus aureus [1] = test: Antibacterial activity against intracellular methicillin resistant Staphylococcus aureus USA400 infected in mouse J774 cells assessed as log10 reduction of viable bacterial cells incubated for 24 hrs followed by re-plating on tryptic soy agar plates at 37 degC for 18 to 22 hrs by broth microdilution assay; format: functional
Streptococcus pneumoniae [2] = test: Antibacterial activity against Methicillin resistant Streptococcus pneumoniae ATCC 700677 assessed as reduction in bacterial cell growth incubated for 18 to 20 hrs by broth microdilution method; format: functional
Acinetobacter baumannii = test: Bactericidal activity against Acinetobacter baumannii ATCC 19606 assessed as reduction in bacterial cell growth incubated for 18 to 20 hrs followed by re-plating on tryptic soy agar plates at 37 degC for 18 hrs by broth microdilution assay; format: functional
Staphylococcus aureus [3] = test: Antibacterial activity against methicillin resistant Staphylococcus aureus NRS119 assessed as reduction in bacterial cell growth incubated for 18 to 20 hrs by broth microdilution method; format: functional
Staphylococcus aureus [4] = test: Bactericidal activity against Staphylococcus aureus ATCC 6538 assessed as reduction in bacterial cell growth incubated for 18 to 20 hrs followed by re-plating on tryptic soy agar plates at 37 degC for 18 hrs by broth microdilution assay; format: functional
Staphylococcus aureus [5] = test: Antibacterial activity against methicillin resistant Staphylococcus aureus USA400 assessed as reduction in bacterial cell growth incubated for 18 to 20 hrs by broth microdilution method; format: functional
Staphylococcus aureus [6] = test: Bactericidal activity against Staphylococcus aureus NRS107 assessed as reduction in bacterial cell growth incubated for 18 to 20 hrs followed by re-plating on tryptic soy agar plates at 37 degC for 18 hrs by broth microdilution assay; format: functional
Escherichia coli [7] = test: Antibacterial activity against Escherichia coli JW55031 harboring deltatolC mutant assessed as reduction in bacterial cell growth incubated for 18 to 20 hrs by broth microdilution method; format: functional
[8] = test system: Staphylococcus epidermidis; test: Antibacterial activity against methicillin resistant Staphylococcus epidermidis NRS101 assessed as reduction in bacterial cell growth incubated for 18 to 20 hrs by broth microdilution method; format: functional
Enterococcus faecalis [9] = test: Antibacterial activity against vancomycin resistant Enterococcus faecalis ATCC 51299 assessed as reduction in bacterial cell growth incubated for 18 to 20 hrs by broth microdilution method; format: functional
[10] = Solubility of compound in PBS after 2 hrs by turbidity based absorbance analysis; format: physicochemical
J774 = test: Cytotoxicity against mouse J774 assessed as reduction in cell viability at 16 ug/ml incubated for 24 hrs by MTS assay; format: cell-based; settings: j774, 24 h
Staphylococcus aureus [11] = test: Antibacterial activity against Staphylococcus aureus NRS107 assessed as reduction in bacterial cell growth incubated for 18 to 20 hrs by broth microdilution method; format: functional
Pseudomonas aeruginosa [12] = test: Antibacterial activity against Pseudomonas aeruginosa ATCC 15442 assessed as reduction in bacterial cell growth incubated for 18 to 20 hrs by broth microdilution method; format: functional
Klebsiella pneumoniae [13] = test: Bactericidal activity against Klebsiella pneumoniae BAA-1706 assessed as reduction in bacterial cell growth incubated for 18 to 20 hrs followed by re-plating on tryptic soy agar plates at 37 degC for 18 hrs by broth microdilution assay; format: functional
Listeria monocytogenes [14] = test: Bactericidal activity against Listeria monocytogenes ATCC 19111 assessed as reduction in bacterial cell growth incubated for 18 to 20 hrs followed by re-plating on tryptic soy agar plates at 37 degC for 18 hrs by broth microdilution assay; format: functional
Escherichia coli [15] = test: Antibacterial activity against Escherichia coli BW25113 assessed as reduction in bacterial cell growth incubated for 18 to 20 hrs by broth microdilution method; format: functional
Enterococcus faecalis [16] = test: Bactericidal activity against vancomycin resistant Enterococcus faecalis ATCC 51299 assessed as reduction in bacterial cell growth incubated for 18 to 20 hrs followed by re-plating on tryptic soy agar plates at 37 degC for 18 hrs by broth microdilution assay; format: functional
Enterococcus faecium = test: Bactericidal activity against vancomycin resistant Enterococcus faecium ATCC 700221 assessed as reduction in bacterial cell growth incubated for 18 to 20 hrs followed by re-plating on tryptic soy agar plates at 37 degC for 18 hrs by broth microdilution assay; format: functional
Escherichia coli [17] = test: BActericidal activity against Escherichia coli BW25113 assessed as reduction in bacterial cell growth incubated for 18 to 20 hrs followed by re-plating on tryptic soy agar plates at 37 degC for 18 hrs by broth microdilution assay; format: functional
Staphylococcus aureus [18] = test: Bactericidal activity against methicillin resistant Staphylococcus aureus NRS119 assessed as reduction in bacterial cell growth incubated for 18 to 20 hrs followed by re-plating on tryptic soy agar plates at 37 degC for 18 hrs by broth microdilution assay; format: functional
Staphylococcus aureus [19] = test: Antibacterial activity against methicillin-resistant Staphylococcus aureus USA300 assessed as reduction in bacterial cell growth incubated for 18 to 20 hrs by broth microdilution method; format: functional
Staphylococcus aureus [20] = test: Antibacterial activity against Staphylococcus aureus ATCC 6538 assessed as reduction in bacterial cell growth incubated for 18 to 20 hrs by broth microdilution method; format: functional
Streptococcus pneumoniae [21] = test: Bactericidal activity against Methicillin resistant Streptococcus pneumoniae ATCC 700677 assessed as reduction in bacterial cell growth incubated for 18 to 20 hrs followed by re-plating on tryptic soy agar plates at 37 degC for 18 hrs by broth microdilution assay; format: functional
Streptococcus pneumoniae [22] = test: Bactericidal activity against Cephalosporin resistant Streptococcus pneumoniae ATCC 51916 assessed as reduction in bacterial cell growth incubated for 18 to 20 hrs followed by re-plating on tryptic soy agar plates at 37 degC for 18 hrs by broth microdilution assay; format: functional
Klebsiella pneumoniae [23] = test: Antibacterial activity against Klebsiella pneumoniae BAA-1706 assessed as reduction in bacterial cell growth incubated for 18 to 20 hrs by broth microdilution method; format: functional
Staphylococcus aureus [24] = test: Bactericidal activity against vancomycin resistant Staphylococcus aureus VRS12 assessed as reduction in bacterial cell growth incubated for 18 to 20 hrs followed by re-plating on tryptic soy agar plates at 37 degC for 18 hrs by broth microdilution assay; format: functional
Staphylococcus aureus [25] = test: Bactericidal activity against vancomycin resistant Staphylococcus aureus VRS10 assessed as reduction in bacterial cell growth incubated for 18 to 20 hrs followed by re-plating on tryptic soy agar plates at 37 degC for 18 hrs by broth microdilution assay; format: functional
Staphylococcus aureus [26] = test: Antibacterial activity against vancomycin resistant Staphylococcus aureus VRS10 assessed as reduction in bacterial cell growth incubated for 18 to 20 hrs by broth microdilution method; format: functional
Staphylococcus aureus [27] = test: Bactericidal activity against methicillin-resistant Staphylococcus aureus USA300 assessed as reduction in bacterial cell growth incubated for 18 to 20 hrs followed by re-plating on tryptic soy agar plates at 37 degC for 18 hrs by broth microdilution assay; format: functional
Pseudomonas aeruginosa [28] = test: Bactericidal activity against Pseudomonas aeruginosa ATCC 15442 assessed as reduction in bacterial cell growth incubated for 18 to 20 hrs followed by re-plating on tryptic soy agar plates at 37 degC for 18 hrs by broth microdilution assay; format: functional
Staphylococcus aureus [29] = test: Bactericidal activity against vancomycin resistant Staphylococcus aureus VRS11a assessed as reduction in bacterial cell growth incubated for 18 to 20 hrs followed by re-plating on tryptic soy agar plates at 37 degC for 18 hrs by broth microdilution assay; format: functional
Listeria monocytogenes [30] = test: Antibacterial activity against Listeria monocytogenes ATCC 19111 assessed as reduction in bacterial cell growth incubated for 18 to 20 hrs by broth microdilution method; format: functional
Staphylococcus aureus [31] = test: Antibacterial activity against vancomycin resistant Staphylococcus aureus VRS12 assessed as reduction in bacterial cell growth incubated for 18 to 20 hrs by broth microdilution method; format: functional

Work on `C/C(=N\NC(=N)N)c1sc(-c2ccc(C#Cc3ccc(C)s3)cc2)nc1C` yielded an Activity (Staphylococcus aureus [1]) of 0.21 log10CFU, an MIC (Streptococcus pneumoniae [2]) of 8 µg/mL (≈ 20.3 µM) and an MBC (Acinetobacter baumannii) of 64 µg/mL (≈ 163 µM). The MIC (Staphylococcus aureus [3]) was 4 µg/mL (≈ 10.2 µM), the MBC (Staphylococcus aureus [4]) was 4 µg/mL (≈ 10.2 µM) and the MIC (Staphylococcus aureus [5]) was 2 µg/mL (≈ 5.08 µM). It also gave an MBC (Staphylococcus aureus [6]) of 4 µg/mL (≈ 10.2 µM), an MIC (Escherichia coli [7]) of 32 µg/mL (≈ 81.3 µM) and an MIC [8] of 4 µg/mL (≈ 10.2 µM). For the same compound, the MIC (Enterococcus faecalis [9]) was 16 µg/mL (≈ 40.7 µM), the solubility kinetic at 2 h [10] was 12 µM (≈ 4.72 µg/mL) and the Activity (J774) was “Non-Toxic”. For the same compound, the MIC (Staphylococcus aureus [11]) was 4 µg/mL (≈ 10.2 µM), the MIC (Pseudomonas aeruginosa [12]) was over 64 µg/mL and the MBC (Klebsiella pneumoniae [13]) was 64 µg/mL (≈ 163 µM). It also gave an MBC (Listeria monocytogenes [14]) of 32 µg/mL (≈ 81.3 µM), an MIC (Escherichia coli [15]) of 64 µg/mL (≈ 163 µM) and an MBC (Enterococcus faecalis [16]) of 64 µg/mL (≈ 163 µM). For the same compound, the MBC (Enterococcus faecium) was 4 µg/mL (≈ 10.2 µM), the MBC (Escherichia coli [17]) was over 64 µg/mL and the MBC (Staphylococcus aureus [18]) was 4 µg/mL (≈ 10.2 µM). It also gave an MIC (Staphylococcus aureus [19]) of 8 µg/mL (≈ 20.3 µM), an MIC (Staphylococcus aureus [20]) of 4 µg/mL (≈ 10.2 µM) and an MBC (Streptococcus pneumoniae [21]) of 32 µg/mL (≈ 81.3 µM). For the same compound, the MBC (Streptococcus pneumoniae [22]) was 16 µg/mL (≈ 40.7 µM), the MIC (Klebsiella pneumoniae [23]) was 32 µg/mL (≈ 81.3 µM) and the MBC (Staphylococcus aureus [24]) was 16 µg/mL (≈ 40.7 µM). For the same compound, the MBC (Staphylococcus aureus [25]) was 8 µg/mL (≈ 20.3 µM), the MIC (Staphylococcus aureus [26]) was 4 µg/mL (≈ 10.2 µM) and the MBC (Staphylococcus aureus [27]) was 16 µg/mL (≈ 40.7 µM). The MBC (Pseudomonas aeruginosa [28]) was over 64 µg/mL, the MBC (Staphylococcus aureus [29]) was 8 µg/mL (≈ 20.3 µM) and the MIC (Listeria monocytogenes [30]) was 8 µg/mL (≈ 20.3 µM). The MIC (Staphylococcus aureus [31]) was 8 µg/mL (≈ 20.3 µM).

For `C/C(=N\NC(=N)N)c1sc(-c2ccc(C#Cc3ccc(N)cc3)cc2)nc1C`, the Activity call (Staphylococcus aureus [1]) was “inactive”, the MIC (Streptococcus pneumoniae [2]) was 16 µg/mL (≈ 41.2 µM) and the MBC (Acinetobacter baumannii) was over 64 µg/mL. The MIC (Staphylococcus aureus [3]) was 8 µg/mL (≈ 20.6 µM), the MBC (Staphylococcus aureus [4]) was 4 µg/mL (≈ 10.3 µM) and the MIC (Staphylococcus aureus [5]) was 4 µg/mL (≈ 10.3 µM). It also gave an MBC (Staphylococcus aureus [6]) of 8 µg/mL (≈ 20.6 µM), an MIC (Escherichia coli [7]) of 16 µg/mL (≈ 41.2 µM) and an MIC [8] of 2 µg/mL (≈ 5.15 µM). The MIC (Enterococcus faecalis [9]) was over 64 µg/mL, the solubility kinetic at 2 h [10] was 105 µM (≈ 40.8 µg/mL) and the Activity (J774) was “Non-Toxic”. For the same compound, the MIC (Staphylococcus aureus [11]) was 4 µg/mL (≈ 10.3 µM), the MIC (Pseudomonas aeruginosa [12]) was over 64 µg/mL and the MBC (Klebsiella pneumoniae [13]) was over 64 µg/mL. It also gave an MBC (Listeria monocytogenes [14]) of over 64 µg/mL, an MIC (Escherichia coli [15]) of over 64 µg/mL and an MBC (Enterococcus faecalis [16]) of over 64 µg/mL. It also gave an MBC (Enterococcus faecium) of 16 µg/mL (≈ 41.2 µM), an MBC (Escherichia coli [17]) of over 64 µg/mL and an MBC (Staphylococcus aureus [18]) of 16 µg/mL (≈ 41.2 µM). The MIC (Staphylococcus aureus [19]) was 4 µg/mL (≈ 10.3 µM), the MIC (Staphylococcus aureus [20]) was 2 µg/mL (≈ 5.15 µM) and the MBC (Streptococcus pneumoniae [21]) was 32 µg/mL (≈ 82.4 µM). For the same compound, the MBC (Streptococcus pneumoniae [22]) was 32 µg/mL (≈ 82.4 µM), the MIC (Klebsiella pneumoniae [23]) was over 64 µg/mL and the MBC (Staphylococcus aureus [24]) was 32 µg/mL (≈ 82.4 µM). It also gave an MBC (Staphylococcus aureus [25]) of 32 µg/mL (≈ 82.4 µM), an MIC (Staphylococcus aureus [26]) of 16 µg/mL (≈ 41.2 µM) and an MBC (Staphylococcus aureus [27]) of 16 µg/mL (≈ 41.2 µM). For the same compound, the MBC (Pseudomonas aeruginosa [28]) was over 64 µg/mL, the MBC (Staphylococcus aureus [29]) was 32 µg/mL (≈ 82.4 µM) and the MIC (Listeria monocytogenes [30]) was 32 µg/mL (≈ 82.4 µM). For the same compound, the MIC (Staphylococcus aureus [31]) was 16 µg/mL (≈ 41.2 µM).
